Experimental data taken from patent US12233061B2, “Microvascular angina” (THE UNIVERSITY COURT OF THE UNIVERSITY OF GLASGOW, priority 2019, dated 2025).
Entries after “also recorded” stand apart in the source; their conditions may differ. Like-named read-outs stand apart in the source and are kept apart here. Where a SMILES comes first, the peptide text is derived from it.

Experiments:
[1] = test system: small peripheral resistance vessels; assay: Wire myography by rs9349379 genotype: vasoconstriction to ET-1; type: cell-based, human; details: 95% CI
Description: (§1) Ex vivo pharmacological assessment of peripheral vascular function was performed on patients who volunteered to undergo a gluteal skin fat biopsy within 4 weeks of the invasive coronary function assessment. The biopsy was obtained under sterile conditions using local anaesthesia with lidocaine (2%). Small peripheral resistance vessels (<400 μm) were carefully dissected from fresh biopsies using a light microscope. About 2 mm length vessels were mounted on 40-μm stainless steel wires for isometric myography in multi-channel myograph chambers (DMT, Denmark) filled with physiological saline solution. […] This vascular biology sub-study was an extension of our work in INOCA subjects that was previously published in this journal.^31A The detailed methods are described in the Supplementary material online, Appendix.
(§2) The peripheral vascular sensitivity to ET-1 (pEC50) and maximum vasoconstriction to ET-1 (Eumax) were determined. For the antagonist studies, the affinity (KB) of BQ123 was first determined in paired vessels from individuals and calculated using Schild regression. The pKB (−log10 KB) values were compared between each genotype as an indicator of whether or not patients of different genotypes are likely to respond equally well to an ETA antagonist used clinically.

[2] = test system: resistance arteries; assay: Wire myography: contractile response to constrictor agonists, relative to KPSS (Example 2); type: cell-based, human; details: for Emax (percentage of maximum response to KPSS solution) / pEC50: median
[3] = test system: human mammary resistance arteries; details: compared with bosentan; cited from earlier work
[4] = cited from earlier work
[5] = subjects with low myocardial perfusion homogeneity; cited from earlier work
[6] = target: T1, ETA receptor (Homo sapiens, UniProt P25101); assay: ET-1 cumulative concentration response curves after antagonist preincubation, Schild plot pA2 (Example 3); type: cell-based; details: microvessels pre-treated with antagonist
T1 construct: Small peripheral resistance vessels (<400 μm) were carefully dissected from fresh biopsies using a light microscope; from tissue; host or cells: small peripheral resistance arteries from gluteal skin fat biopsies of angina patients
T1 sequence (P25101 21-427): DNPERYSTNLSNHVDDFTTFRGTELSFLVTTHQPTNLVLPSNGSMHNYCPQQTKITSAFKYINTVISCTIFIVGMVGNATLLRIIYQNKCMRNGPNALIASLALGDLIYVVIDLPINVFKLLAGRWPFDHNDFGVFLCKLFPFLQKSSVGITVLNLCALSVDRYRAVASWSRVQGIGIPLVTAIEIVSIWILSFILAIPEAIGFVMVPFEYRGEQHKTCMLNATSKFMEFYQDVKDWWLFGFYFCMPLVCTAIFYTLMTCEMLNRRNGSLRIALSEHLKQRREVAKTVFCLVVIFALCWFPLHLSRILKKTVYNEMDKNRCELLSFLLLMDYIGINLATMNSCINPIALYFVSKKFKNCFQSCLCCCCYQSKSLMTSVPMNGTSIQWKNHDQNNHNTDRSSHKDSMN

[7] = target: T1, ETA receptor; assay: Paired ET-1 CCRCs with and without ETA antagonist, pKB by Schild regression (Examples 4 and 5); type: cell-based; details: for Kb: pKB
Description: as §1, §2

[8] = GTN half-life and remaining dose; details: human, in vivo, other: intra-arterial; after 10 min; read-out: share of the dose bioavailable
[9] = test system: small peripheral resistance arteries; assay: Reversal of an established ET-1-mediated vessel constriction, wire myography; type: cell-based, human; details: clinically relevant concentrations
[10] = test system: small peripheral resistance vessels; assay: Wire myography by rs9349379 genotype: vasodilator response to ACh; type: cell-based; details: Homo sapiens, 95% CI; for EC50: read-out: ACh pEC50 (converted)
[11] = test system: resistance arteries; assay: Wire myography: relaxation to dilator agonists after preconstriction with U46619 (Example 2); type: cell-based, human; details: median; for IC50 / Emax: Homo sapiens; for Emax: read-out: Emax (maximum relaxation after preconstriction with U46619)
[12] = test system: coronary microvascular endothelial function; details: 10 mg PO daily for 6 months; IC-ACh; cited from earlier work

## CC[C@H](C)[C@H](NC(=O)[C@H](CC(=O)O)NC(=O)[C@H](CC(C)C)NC(=O)[C@H](Cc1c[nH]cn1)NC(=O)[C@@H]1CSSC[C@H](N)C(=O)N[C@@H](CO)C(=O)N[C@H]2CSSC[C@H](NC(=O)[C@H](CCC(=O)O)NC(=O)[C@H](CCCCN)NC(=O)[C@H](CC(=O)O)NC(=O)[C@H](CCSC)NC(=O)[C@H](CC(C)C)NC(=O)[C@H](CO)NC(=O)[C@H](CO)NC2=O)C(=O)N[C@@H](C(C)C)C(=O)N[C@@H](Cc2ccc(O)cc2)C(=O)N[C@@H](Cc2ccccc2)C(=O)N1)C(=O)N[C@H](C(=O)N[C@@H](Cc1c[nH]c2ccccc12)C(=O)O)[C@@H](C)CC [ET-1]
[1]; genotype AA
  ET-1 Emax (maximum vasoconstriction): 122.3%
  ET-1 pEC50: 9.34
[1]; genotype AG
  ET-1 Emax (maximum vasoconstriction): 115.5%
  ET-1 pEC50: 9.45
[1]; genotype GG
  ET-1 Emax (maximum vasoconstriction): 129.7%
  ET-1 pEC50: 9.32
[2]; MVA patients
  Emax (percentage of maximum response to KPSS solution): 121%
  pEC50: 9.6
[2]; VSA patients
  Emax (percentage of maximum response to KPSS solution): 125%
  pEC50: 9.5
[2]; all groups
  sensitivity of resistance arteries to constrictor effects of ET-1 compared with U46619: around 50 fold
[2]; control subjects
  Emax (percentage of maximum response to KPSS solution): 100%
  pEC50: 9.3

## CC(C)C[C@H](NC(=O)N1CCCCCC1)C(=O)N[C@H](Cc1cn(C)c2ccccc12)C(=O)N[C@H](Cc1ccccn1)C(=O)O [FR139317]
[3]
  blocking of ET-1 induced contractions: less effective than the dual ETAR/ETBR antagonist bosentan

## Cc1cc2c(cc1CC(=O)c1sccc1S(=O)(=O)Nc1onc(C)c1Cl)OCO2 [sitaxentan]
[4]; HFpEF patients, compared to placebo
  exercise time: increase in exercise time compared to placebo
[4]; in vivo
  hepatotoxicity: withdrawn from development owing to hepatotoxicity

## COc1cc(OC)nc(O[C@H](C(=O)O)C(OC)(c2ccccc2)c2ccccc2)n1 [darusentan]
[5]
  flow homogeneity: increases flow homogeneity

## CCCCC[C@H](O)/C=C/[C@@H]1[C@@H](C/C=C\CCCC(=O)O)[C@H]2CO[C@@H]1C2 [U46619]
[2]; MVA patients
  Emax (percentage of maximum response to KPSS solution): 143%
  pEC50: 8.0
[2]; VSA patients
  Emax (percentage of maximum response to KPSS solution): 141%
  pEC50: 7.5
[2]; control subjects
  Emax (percentage of maximum response to KPSS solution): 109%
  pEC50: 7.50

## CC(C)C[C@@H]1NC(=O)[C@@H](C(C)C)NC(=O)[C@@H]2CCCN2C(=O)[C@@H](CC(=O)O)NC(=O)[C@@H](Cc2c[nH]c3ccccc23)NC1=O [BQ123] (HELM PEPTIDE1{L.[dW].[dD].P.[dV]}$PEPTIDE1,PEPTIDE1,1:R1-5:R2$$$V2.0)
[6]
  effect on the ET-1 constrictor response (shift of ET-1 CCRC): also inhibits the ET-1 response; also recorded: an effect comparable to that of zibotentan
[7]; all genotype groups
  effect on the ET-1 CCRC and constrictor responses: parallel rightward shift of the CCRC to ET-1 in all arteries; also recorded: fully blocked the constrictor responses in all of the groups
[7]; all genotypes pooled, mean (95% CI)
  Kb: 29.5 nM
[7]; rs9349379 genotype AA, ±SEM
  Kb: 85.1 nM
[7]; rs9349379 genotype AG, ±SEM
  Kb: 16.2 nM
[7]; rs9349379 genotype GG, ±SEM
  Kb: 38.9 nM

## O=[N+]([O-])OCC(CO[N+](=O)[O-])O[N+](=O)[O-] [GTN, glyceryl trinitrate]
[8]
  bioavailability at 10 min: 3%

## COc1nc(C)cnc1NS(=O)(=O)c1cccnc1-c1ccc(-c2nnco2)cc1 [zibotentan, N-(3-Methoxy-5-methylpyrazin-2-yl)-2-[4-(1,3,4-oxadiazol-2-yl)phenyl]pyridine-3-sulfonamide]
[9]
  reversal or inhibition of an established constrictor response to ET-1: concentration-dependent inhibition of an established constrictor response to ET-1; also recorded: fully reversed an established endothelin-1 vasoconstriction
[9]; listed as Zibotentan
  reversal or inhibition of an established constrictor response to ET-1: concentration-dependent inhibition of an established constrictor response to ET-1; also recorded: reversed ET-1-induced vasoconstriction independently of G allele status; also recorded: reversed an established ET-1-mediated vasoconstriction; also recorded: rapidly and fully reversed the established endothelin-1 constrictor response

## CCCC[C@@H](NC(=O)[C@@H](Cc1cn(C(=O)OC)c2ccccc12)NC(=O)[C@H](CC(C)(C)C)NC(=O)N1[C@H](C)CCC[C@@H]1C)C(=O)O [BQ788]
[6]
  effect on the ET-1 constrictor response (shift of ET-1 CCRC): only minimal shift in the ET-1 response; also recorded: negligible effect on the ET-1 constrictor response

## CC(=O)OCC[N+](C)(C)C [ACh, Acetylcholine]
[10]; genotype AA
  Emax: 77.7%
  EC50: 52.5 nM
[10]; genotype AG
  Emax: 80.2%
  EC50: 55 nM
[10]; genotype GG
  Emax: 92.5%
  EC50: 110 nM
[11]; MVA patients
  IC50: 79.4 nM
  Emax: 77.6%
[11]; VSA patients
  IC50: 79.4 nM
  Emax: 79%
[11]; control subjects
  IC50: 50.1 nM
  Emax: 98.7%
  Emax (maximum relaxation after preconstriction with U46619): 98%

## CCCCN(CCCC)C(=O)CN1C[C@H](c2ccc3c(c2)OCO3)[C@@H](C(=O)O)[C@@H]1c1ccc(OC)cc1 [atrasentan]
[12]
  coronary microvascular endothelial function: improved coronary microvascular endothelial function
